Laboratory results as given in US20220162167A1, “SUBSTITUTED BICYCLIC AND TETRACYCLIC QUINONES AND USE THEREOF AS ANTI-CANCER AGENTS” (THE REGENTS OF THE UNIVERSITY OF MICHIGAN, priority 2019, published 2022).

How the values were obtained:
Type in all cases: cell-based
MALME-3M = test: NCI60 growth inhibition, MALME-3M; conditions: Melanoma
Description: (§1) Representative compounds were tested in 60 cell lines (NCI60) at the National Cancer Institute, Developmental Therapeutics Program.
(§2) Representative compounds were tested in a panel of 60 cancer cells (NCI 60) at the National Cancer Institute. Growth inhibition are shown in table 2, table 3, table 4, table 5, and FIG. 1, FIG. 2, FIG. 3, FIG. 4, FIG. 5.

M14 = test: NCI60 growth inhibition, M14; conditions: Melanoma
Description: as §1, §2

MDA-MB-435 = test: NCI60 growth inhibition, MDA-MB-435; conditions: Melanoma
Description: as §1, §2

SK-MEL-2 = test: NCI60 growth inhibition, SK-MEL-2; conditions: Melanoma; further: test concentration or dose not given here
Description: as §1, §2

SK-MEL-28 = test: NCI60 growth inhibition, SK-MEL-28; conditions: Melanoma
Description: as §1, §2

SK-MEL-5 = test: NCI60 growth inhibition, SK-MEL-5; conditions: Melanoma
Description: as §1, §2

UACC-257 = test: NCI60 growth inhibition, UACC-257; conditions: Melanoma; further: test concentration or dose not given here
Description: as §1, §2

UACC-62 = test: NCI60 growth inhibition, UACC-62; conditions: Melanoma; further: test concentration or dose not given here
Description: as §1, §2

IGROV1 = test: NCI60 growth inhibition, IGROV1; conditions: Ovarian Cancer
Description: as §1, §2

OVCAR-3 = test: NCI60 growth inhibition, OVCAR-3; conditions: Ovarian Cancer
Description: as §1, §2

OVCAR-4 = test: NCI60 growth inhibition, OVCAR-4; conditions: Ovarian Cancer; further: test concentration or dose not given here
Description: as §1, §2

OVCAR-5 = test: NCI60 growth inhibition, OVCAR-5; conditions: Ovarian Cancer
Description: as §1, §2

NCI/ADR-RES = test: NCI60 growth inhibition, NCI/ADR-RES; conditions: Ovarian Cancer
Description: as §1, §2

SK-OV-3 = test: NCI60 growth inhibition, SK-OV-3; conditions: Ovarian Cancer
Description: as §1, §2

786-0 = test: NCI60 growth inhibition, 786-0; conditions: Renal Cancer
Description: as §1, §2

A498 = test: NCI60 growth inhibition, A498; conditions: Renal Cancer; further: test concentration or dose not given here
Description: as §1, §2

ACHN = test: NCI60 growth inhibition, ACHN; conditions: Renal Cancer
Description: as §1, §2

CAKI-1 = test: NCI60 growth inhibition, CAKI-1; conditions: Renal Cancer; further: test concentration or dose not given here
Description: as §1, §2

RXF 393 = test: NCI60 growth inhibition, RXF 393; conditions: Renal Cancer
Description: as §1, §2

SN12C = test: NCI60 growth inhibition, SN12C; conditions: Renal Cancer
Description: as §1, §2

TK-10 = test: NCI60 growth inhibition, TK-10; conditions: Renal Cancer
Description: as §1, §2

UO-31 = test: NCI60 growth inhibition, UO-31; conditions: Renal Cancer
Description: as §1, §2

PC-3 = test: NCI60 growth inhibition, PC-3; conditions: Prostate Cancer
Description: as §1, §2

DU-145 = test: NCI60 growth inhibition, DU-145; conditions: Prostate Cancer
Description: as §1, §2

MCF7 = test: NCI60 growth inhibition, MCF7; conditions: Breast Cancer
Description: as §1, §2

MDA-MB-231/ATCC = test: NCI60 growth inhibition, MDA-MB-231/ATCC; conditions: Breast Cancer
Description: as §1, §2

HS 578T = test: NCI60 growth inhibition, HS 578T; conditions: Breast Cancer
Description: as §1, §2

T-47D = test: NCI60 growth inhibition, T-47D; conditions: Breast Cancer
Description: as §1, §2

MDA-MB-468 = test: NCI60 growth inhibition, MDA-MB-468; conditions: Breast Cancer; further: test concentration or dose not given here
Description: as §1, §2

Cc1ccc2c(n1)C(=O)C(Cl)=C(Nc1ccc(N3CCN(C)CC3)cc1)C2=O [Compound 13, 7-chloro-2-methyl-6-((4-(4-methylpiperazin-1-yl)phenyl)amino)quinoline-5,8-dione]
Growth inhibition (% control) GIPRCNT (MALME-3M): −75.4481 % control | Growth inhibition (% control) GIPRCNT (M14): 73.83 % control | Growth inhibition (% control) GIPRCNT (MDA-MB-435): −99.1118 % control | Growth inhibition (% control) GIPRCNT (SK-MEL-2): 68.36 % control | Growth inhibition (% control) GIPRCNT (SK-MEL-28): 30.32 % control | Growth inhibition (% control) GIPRCNT (SK-MEL-5): 10.39 % control | Growth inhibition (% control) GIPRCNT (UACC-257): 57.23 % control | Growth inhibition (% control) GIPRCNT (UACC-62): −49.3593 % control | Growth inhibition (% control) GIPRCNT (IGROV1): −83.5269 % control | Growth inhibition (% control) GIPRCNT (OVCAR-3): −100 % control | Growth inhibition (% control) GIPRCNT (OVCAR-4): −100 % control | Growth inhibition (% control) GIPRCNT (OVCAR-5): −7.548 % control | Growth inhibition (% control) GIPRCNT (NCI/ADR-RES): 27.61 % control | Growth inhibition (% control) GIPRCNT (SK-OV-3): 89.88 % control | Growth inhibition (% control) GIPRCNT (786-0): 52.18 % control | Growth inhibition (% control) GIPRCNT (A498): 100.8258 % control | Growth inhibition (% control) GIPRCNT (ACHN): −93.75 % control | Growth inhibition (% control) GIPRCNT (CAKI-1): −100 % control | Growth inhibition (% control) GIPRCNT (RXF 393): 62.78 % control | Growth inhibition (% control) GIPRCNT (SN12C): −88.5465 % control | Growth inhibition (% control) GIPRCNT (TK-10): 100.0838 % control | Growth inhibition (% control) GIPRCNT (UO-31): −97.3532 % control | Growth inhibition (% control) GIPRCNT (PC-3): 68.66 % control | Growth inhibition (% control) GIPRCNT (DU-145): −18.6864 % control | Growth inhibition (% control) GIPRCNT (MCF7): −61.9194 % control | Growth inhibition (% control) GIPRCNT (MDA-MB-231/ATCC): −62.773 % control | Growth inhibition (% control) GIPRCNT (HS 578T): 58 % control | Growth inhibition (% control) GIPRCNT (T-47D): −61.1209 % control | Growth inhibition (% control) GIPRCNT (MDA-MB-468): −84.6413 % control
